In PubChem BioAssay (NCI):
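Five concentrations, 48 hours, 96-well plates. Abbreviation: GI50, concentration required for 50% inhibition of growth. TGI marks complete inhibition of growth.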

Tests used:
Experiment in all cases: NCI-60 cell line screen, 48 h
CAKI-1 renal = tested on: CAKI-1 renal
HCC-2998 colon = tested on: HCC-2998 colon
HOP-92 NSCLC = tested on: HOP-92 NSCLC
HS 578T breast = tested on: HS 578T breast
K-562 leukemia = tested on: K-562 leukemia
OVCAR-8 ovarian = tested on: OVCAR-8 ovarian
RPMI-8226 leukemia = tested on: RPMI-8226 leukemia
RXF 393 renal = tested on: RXF 393 renal
SK-MEL-2 melanoma = tested on: SK-MEL-2 melanoma
SNB-19 CNS = tested on: SNB-19 CNS

Compound	GI50 (CAKI-1 renal)	TGI (CAKI-1 renal)	GI50 (HCC-2998 colon)	TGI (HCC-2998 colon)	GI50 (HOP-92 NSCLC)	TGI (HOP-92 NSCLC)	GI50 (HS 578T breast)	TGI (HS 578T breast)	GI50 (K-562 leukemia)	TGI (K-562 leukemia)	GI50 (OVCAR-8 ovarian)	TGI (OVCAR-8 ovarian)	GI50 (RPMI-8226 leukemia)	TGI (RPMI-8226 leukemia)	GI50 (RXF 393 renal)	TGI (RXF 393 renal)	GI50 (SK-MEL-2 melanoma)	TGI (SK-MEL-2 melanoma)	GI50 (SNB-19 CNS)	TGI (SNB-19 CNS)
CN1CCN(CC(=O)N2c3cccc4cccc(c34)N(C(=O)CN3CCN(C)CC3)C2c2cn(-c3ccccc3)nc2-c2cccc([N+](=O)[O-])c2)CC1	1.83 µM	4.1 µM	1.54 µM	3.01 µM	1.13 µM	3.18 µM	1.95 µM	5.71 µM	1.22 µM	3.81 µM	2.35 µM	5.79 µM	1.76 µM	4.33 µM	1.58 µM	3.09 µM	1.95 µM	4.04 µM	2.96 µM	11.3 µM
Cc1cc(N(CCOS(C)(=O)=O)CCOS(C)(=O)=O)ccc1C=Nc1ccc(-c2csc(-c3ccc(Br)cc3)n2)cc1	–	3.96 µM	–	31.8 µM	–	38.3 µM	–	> 97.3 µM	–	> 97.1 µM	–	61.6 µM	–	> 100 µM	–	6.55 µM	–	61.7 µM	–	> 88.1 µM
COc1cnc2c(c1)C(=O)c1c-2n(CCCNC(C)C)c(=O)c2cc([N+](=O)[O-])ccc12	0.0314 µM	0.191 µM	0.109 µM	0.269 µM	1.09 µM	2.82 µM	0.938 µM	3.24 µM	0.0443 µM	0.485 µM	0.0468 µM	0.541 µM	0.0487 µM	0.738 µM	0.0562 µM	1.38 µM	0.195 µM	0.406 µM	0.0423 µM	0.896 µM
Oc1c(I)cc(I)cc1CN(Cc1ccccn1)Cc1ccccn1	0.499 µM	12.2 µM	4.18 µM	34.7 µM	1.18 µM	9.04 µM	2.06 µM	16 µM	0.548 µM	14.6 µM	0.547 µM	23.2 µM	1.17 µM	14.1 µM	1.86 µM	9.76 µM	2.08 µM	12.2 µM	0.86 µM	> 64.2 µM
CCN1CCN(c2ccc(Nc3ncc4ccc5ncn(C(C)C)c5c4n3)nc2)CC1	0.025 µM	0.52 µM	0.161 µM	1.43 µM	0.155 µM	0.474 µM	0.155 µM	0.618 µM	0.132 µM	–	0.311 µM	16.3 µM	< 0.0324 µM	1.45 µM	0.0765 µM	0.248 µM	0.144 µM	0.357 µM	0.187 µM	15.5 µM
Cc1nc2sc(C(=O)Nc3cccc(Br)c3)c(N)c2cc1C(O)c1ccccc1 (stereo unspecified)	0.632 µM	15.6 µM	2.4 µM	12.1 µM	4.27 µM	32.4 µM	0.424 µM	9.21 µM	0.364 µM	> 42.7 µM	1.42 µM	55.1 µM	0.511 µM	> 23.1 µM	0.483 µM	10.9 µM	1.77 µM	26.4 µM	1.48 µM	18.9 µM
Nc1nc(-c2ccc(Cl)cc2)cc(-c2ccccc2)c1-c1nc2ccccc2o1	12.2 µM	28.6 µM	8.39 µM	34 µM	2.19 µM	6.18 µM	12.7 µM	40.9 µM	3.69 µM	> 100 µM	14.1 µM	54.1 µM	6.9 µM	23 µM	3.69 µM	16.9 µM	15.5 µM	39.2 µM	18.6 µM	44.6 µM
COc1ccc2nc(-c3cc4c([nH]c5ccccc54)c(-c4ccc(F)c(F)c4)n3)[nH]c2c1	2.41 µM	8.97 µM	8.96 µM	25.3 µM	5.96 µM	29.5 µM	8.68 µM	41.9 µM	3.35 µM	24.4 µM	3.08 µM	18.1 µM	1.55 µM	4.29 µM	3.46 µM	13.1 µM	12.1 µM	34.9 µM	8.57 µM	> 100 µM
COc1cc(C)c(NC(=O)CN(C)C)cc1Nc1nc(Nc2cccc(F)c2C(N)=O)c2cc[nH]c2n1	3.68 µM	9.95 µM	0.621 µM	5.09 µM	0.0124 µM	2.66 µM	3.08 µM	10.2 µM	1.41 µM	6.38 µM	1.64 µM	6.32 µM	2.23 µM	7.99 µM	1.42 µM	5.9 µM	0.479 µM	3.32 µM	4.02 µM	16 µM
Nc1nc(-c2ccccc2)cc(-c2ccc(Cl)cc2)c1-c1nc2ccccc2o1	22.9 µM	38.6 µM	10.3 µM	25.8 µM	1.7 µM	6.83 µM	14.8 µM	36.1 µM	10.9 µM	29.3 µM	18.7 µM	61.2 µM	4.82 µM	19.8 µM	21.5 µM	44.6 µM	18 µM	37.9 µM	17.7 µM	37.9 µM
Nc1ccc(-c2ccc(-c3nc4cc(Cl)c(Cl)cc4[nH]3)cc2)cc1	0.353 µM	–	0.1 µM	0.426 µM	23 µM	65 µM	12 µM	82.1 µM	4.32 µM	> 100 µM	14.5 µM	> 92.9 µM	1.85 µM	38.4 µM	5.71 µM	38.8 µM	2.46 µM	> 100 µM	23.7 µM	> 100 µM
C=C1C(=O)O[C@H]2[C@H]1CC/C(COC(=O)NCc1cc(OC)cc(OC)c1)=C\CC[C@@]1(C)O[C@@H]21	1.59 µM	3.1 µM	1.94 µM	3.51 µM	1.42 µM	3.18 µM	4.12 µM	23 µM	1.56 µM	5.94 µM	1.6 µM	3.95 µM	1.8 µM	6.25 µM	0.687 µM	2.07 µM	1.66 µM	3.54 µM	5.32 µM	22.2 µM
O=C(O)CCSC(=S)Nc1ccc([N+](=O)[O-])cc1	–	> 100 µM	–	> 100 µM	–	68.9 µM	–	> 100 µM	–	> 63 µM	–	> 100 µM	–	> 77.2 µM	–	> 100 µM	–	> 100 µM	–	> 100 µM
C=C(C)[C@@H]1CC[C@]2(C(N)=O)CC[C@]3(C)[C@H](CC[C@@H]4[C@@]5(C)C/C(=C/c6cccnc6)[C@H](O)C(C)(C)[C@@H]5CC[C@]43C)[C@@H]12	2.15 µM	28.4 µM	4.66 µM	> 100 µM	6.37 µM	> 100 µM	8.3 µM	> 100 µM	3.4 µM	> 100 µM	4.54 µM	> 100 µM	2.5 µM	48.3 µM	3.61 µM	52.5 µM	4.35 µM	42.9 µM	6.02 µM	> 100 µM
Cc1ccc2c(c1)C=CC(C#N)N2C(=O)Oc1ccccc1 (stereo unspecified)	–	> 100 µM	–	31.2 µM	–	64.7 µM	–	> 100 µM	–	64.4 µM	–	31.1 µM	–	52.6 µM	–	> 100 µM	–	61.9 µM	–	> 100 µM
CCCCCC/C=C1\CCC(CN(C)C)C1=O (stereo unspecified)	–	9.51 µM	–	18.3 µM	–	28.8 µM	–	40.3 µM	–	7.64 µM	–	13.5 µM	–	4.7 µM	–	9.8 µM	–	26.6 µM	–	30.8 µM
O=S(=O)(Nc1ccccn1)c1ccc(N=Nc2ccc(O)c3ncccc23)cc1	0.441 µM	4.56 µM	3.73 µM	18.4 µM	1.21 µM	5.34 µM	1.06 µM	8.86 µM	0.734 µM	> 37.7 µM	0.715 µM	–	0.748 µM	27.7 µM	1.24 µM	11.9 µM	0.463 µM	1.64 µM	0.771 µM	> 53.3 µM
COc1cc(N2CCC(N3CCN(C)CC3)CC2)ccc1Nc1ncc(Cl)c(Nc2ccccc2S(=O)(=O)C(C)C)n1	0.65 µM	6.51 µM	1.07 µM	2.39 µM	0.0476 µM	0.433 µM	1.35 µM	5.07 µM	1.67 µM	5.41 µM	2.1 µM	7.76 µM	0.924 µM	6.46 µM	0.6 µM	1.86 µM	1.33 µM	3.45 µM	2.07 µM	12.2 µM
CCN(CC)CC[n+]1cc2cc(OC)c(OC)cc2c2ccc3cc4c(cc3c21)OCO4	1.99 µM	14.3 µM	0.725 µM	2.15 µM	1.37 µM	3.88 µM	0.604 µM	5.54 µM	0.288 µM	–	0.314 µM	2.11 µM	0.303 µM	1.73 µM	0.783 µM	2.45 µM	1.64 µM	4.59 µM	0.452 µM	1.77 µM
Nc1nc(-c2cccs2)cs1	–	> 100 µM	–	> 100 µM	–	> 100 µM	–	> 100 µM	–	> 100 µM	–	> 100 µM	–	> 100 µM	–	> 100 µM	–	> 100 µM	–	> 100 µM
Cc1ccc(C2=NN(c3ccc(S(N)(=O)=O)cc3)C(c3cn(-c4ccccc4)nc3-c3ccccc3)C2)cc1 (stereo unspecified)	6.17 µM	> 100 µM	13.8 µM	> 100 µM	3.33 µM	22.2 µM	18.3 µM	> 100 µM	3.82 µM	> 100 µM	7.53 µM	> 100 µM	6.35 µM	> 100 µM	3.81 µM	17.8 µM	43.7 µM	> 100 µM	> 100 µM	> 100 µM
C=CCSSc1ncnc2c1ncn2C1OC(CO)C(O)C1O (stereo unspecified)	0.799 µM	> 68.8 µM	3.06 µM	60 µM	0.222 µM	4.98 µM	14.5 µM	> 93.5 µM	1.2 µM	> 39.4 µM	2.87 µM	> 42.9 µM	1.15 µM	6.47 µM	6.93 µM	27.1 µM	6.25 µM	> 41.9 µM	> 55.7 µM	> 100 µM
N#Cc1nn(-c2cc(=O)[nH]c3ccc(Br)cc23)c(N)c1C#N	> 100 µM	> 100 µM	> 100 µM	> 100 µM	> 100 µM	> 100 µM	64.9 µM	> 100 µM	> 100 µM	> 100 µM	> 100 µM	> 100 µM	> 100 µM	> 100 µM	> 100 µM	> 100 µM	> 100 µM	> 100 µM	> 100 µM	> 100 µM
O=C(NCCCCCCNC(=O)OCc1ccc2c(Cl)cc(Cl)c(O)c2n1)OCc1ccc2c(Cl)cc(Cl)c(O)c2n1	0.412 µM	1.69 µM	1.68 µM	3.22 µM	0.515 µM	2.17 µM	1.46 µM	5.68 µM	0.381 µM	–	0.677 µM	2.62 µM	0.311 µM	1.68 µM	0.478 µM	1.57 µM	1.45 µM	2.99 µM	1.49 µM	2.91 µM
COC1=C(OC)[C@]2(OC)c3c(O)c(OC)c4c(c3O[C@@]23O[C@@H](c2ccccc2)CC=C3C1=O)[C@@H](O)C[C@H](c1ccccc1)O4	1.34 µM	2.93 µM	0.564 µM	1.96 µM	0.244 µM	0.641 µM	1.76 µM	5.38 µM	0.0972 µM	0.742 µM	0.181 µM	0.35 µM	0.0714 µM	0.597 µM	0.199 µM	0.406 µM	–	–	2.11 µM	9.69 µM
Clc1ccc2c(NCCNc3nc(N4CCCC4)nc4ccccc34)ccnc2c1	–	–	1.78 µM	4.37 µM	1.23 µM	2.66 µM	2.34 µM	7 µM	0.118 µM	3.29 µM	1.65 µM	4.12 µM	1.76 µM	4.96 µM	1.23 µM	2.63 µM	1.86 µM	3.85 µM	1.6 µM	5.62 µM
